Values quoted from earlier work, collected in patent US6831041B2, “Oil suspension concentrates based on a cyclohexenone oxime ether lithium salt and the use thereof as plant protection agents” (BASF Aktiengesellschaft, priority 2000, dated 2004).

Settings: formulated together with calcium glyphosate as oil suspension concentrate

For `CCCC(CC(C)=NOCC=CCl)C1=C(O)CC(C2CCCOC2)CC1=O` (stereo not shown) [2-{1-[2-(3-chloroallyloxy)iminopropyl]-butyl}-3-hydroxy-5-(tetrahydropyran-3-yl)cyclohex-2-enone], the “stability in formulation (in words)” value is given as “insufficient stability”.
